Experimental findings from ChEMBL document CHEMBL1128387, “Sigma ligands with subnanomolar affinity and preference for the sigma 2 binding site. 2. Spiro-joined benzofuran, isobenzofuran, and benzopyran piperidines” (J Med Chem, 1995) are described below.

Experiment [1] concerns the target Sigma non-opioid intracellular receptor 1 (Rattus norvegicus, UniProt Q9R0C9). In words: Compound was evaluated for the binding affinity towards Sigma receptor type 1 using radioligand ([3H]-(+)- Pentazocine) binding assay.
Experiment [2] concerns the target Sigma intracellular receptor 2 (Rattus norvegicus, UniProt Q5U3Y7). In words: Binding affinity towards Sigma receptor type 2 in whole rat brain homogenates except cerebellum using radioligand ([3H]DTG) binding assay. It counts as tissue-based.

Chain of Sigma non-opioid intracellular receptor 1 (Q9R0C9 whole entry): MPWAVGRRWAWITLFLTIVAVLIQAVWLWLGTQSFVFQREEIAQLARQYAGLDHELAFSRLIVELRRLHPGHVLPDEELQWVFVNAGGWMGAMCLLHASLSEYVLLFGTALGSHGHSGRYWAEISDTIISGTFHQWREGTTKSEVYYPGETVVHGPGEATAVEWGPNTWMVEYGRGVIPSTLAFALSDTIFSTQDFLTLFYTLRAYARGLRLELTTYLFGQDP
Chain of Sigma intracellular receptor 2 (Q5U3Y7 whole entry, looked up): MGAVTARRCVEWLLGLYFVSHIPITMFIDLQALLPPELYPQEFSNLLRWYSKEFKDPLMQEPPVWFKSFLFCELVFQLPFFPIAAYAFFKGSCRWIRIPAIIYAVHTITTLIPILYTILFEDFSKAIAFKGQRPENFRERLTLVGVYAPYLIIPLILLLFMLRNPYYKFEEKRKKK

In experiment [1], `Fc1ccc(-n2cc(CCCCN3CCC4(CC3)SCc3ccccc34)c3ccccc32)cc1` gave an IC50 of 35 nM. This counts as double-digit nanomolar.
Same read-out and setting: then `Fc1ccc(-n2cc(CCCCN3CCC4(CC3)OCc3cccc(F)c34)c3ccccc32)cc1`, with 150 nM.
Regarding `CCN1CCC2(CC1)OCc1ccccc12`, the values for the IC50 in experiment [1] and in experiment [2] were 140 nM and 270 nM, respectively.
`Fc1ccc(-n2cc(CCCCN3CCC4(CC3)Cc3ccccc3O4)c3ccccc32)cc1`: the IC50 in experiment [1] is 360 nM.
`c1ccc(CN2CCC3(CCCc4ccccc43)CC2)cc1`: the half-inhibitory concentration (IC50) in experiment [2] was determined as 12 nM. This lies in the double-digit nanomolar range.
Compound `c1ccc(CCCCN2CCC3(CC2)OCc2ccccc23)cc1` showed an IC50 in experiment [1] of 0.27 nM.
In the case of `Fc1ccc(-n2cc(CCCCN3CCC4(CC3)COc3ccccc34)c3ccccc32)cc1`, the IC50 in experiment [1] amounted to 3.8 nM.
`Fc1ccc(-n2cc(CCCCN3CCC4(CC3)COc3ccccc3C4)c3ccccc32)cc1` showed an IC50 in experiment [1] of 200 nM.
Same read-out and setting: with `Fc1ccc(-n2cc(CCCCN3CCC4(CCOc5ccccc54)CC3)c3ccccc32)cc1` the figure was 7 nM.
In the case of `c1ccc2c(c1)COC21CCN(CCCOC2CCCCC2)CC1`, in experiment [1], the half-inhibitory concentration (IC50) came out at 0.4 nM.
`Fc1ccc(-n2cc(CCCCN3CCC4(CC3)OCc3c(F)cccc34)c3ccccc32)cc1` registered an IC50 in experiment [1] of 290 nM.
`c1ccc(CCCN2CCC3(CC2)OCc2ccccc23)cc1` had a half-inhibitory concentration (IC50) in experiment [1] of 0.56 nM.
The same measure, in the same setting: then `Fc1ccc(-n2cc(CCCCN3CCC4(CC3)OCc3c(C(F)(F)F)cccc34)c3ccccc32)cc1`, with 180 nM; and `Fc1ccc(-n2cc(CCCCN3CCC4(CC3)Oc3ccccc3O4)c3ccccc32)cc1`, with 430 nM.
Turning to `CC(C)N1CCC2(CC1)OCc1ccccc12`, the figures for the IC50 in experiment [1] and in experiment [2] were 31 nM and 49 nM, respectively.
As to `c1ccc2c(c1)COC21CCN(CCCCC2CCCCC2)CC1`, the IC50 in experiment [1] amounted to 1.5 nM.
The same measure, in the same setting: then `Fc1ccc(-n2cc(CCCCN3CCC4(CC3)Cc3ccccc3CO4)c3ccccc32)cc1`, with 23 nM; and `Fc1ccc(-n2cc(CCCCN3CCC4(CC3)COCc3ccccc34)c3ccccc32)cc1`, with 3.4 nM.
For `CCCN1CCC2(CC1)OCc1ccccc12`, the IC50 is 4.7 nM in experiment [1] and 23 nM in experiment [2].
For `Cc1ccc2c(c1)COC21CCN(CCCCc2cn(-c3ccc(F)cc3)c3ccccc23)CC1`, in that order: 9.5 nM and 2.3 nM.
Consider `c1ccc(CCCCCN2CCC3(CC2)OCc2ccccc23)cc1`, for which the IC50 in experiment [1] was found to be 0.82 nM.
With `c1ccc2c(c1)COC21CCNCC1`, the IC50 in experiment [1] came to 630 nM; in experiment [2] it was 11000 nM.
`c1ccc(CCN2CCC3(CC2)OCc2ccccc23)cc1` gave an IC50 in experiment [1] of 2.2 nM.
In turn, `Fc1ccc(-n2cc(CCCCN3CCC4(CC3)OCCc3ccccc34)c3ccccc32)cc1` came in with an IC50 in experiment [1] of 53 nM.
